Experimental data published in patent publication US20250011303A1, “SMALL MOLECULE MODULATORS OF IL-17A, METHODS OF MAKING AND METHODS OF USING THEREOF” (ASCLETIS BIOSCIENCE CO., LTD, priority 2023, published 2025).
Like-named read-outs stand apart in the source and are kept apart here.

Tested on: HEK-Blue IL-17 cells with rhIL-17A/A
Experiment: HEK-Blue IL-17 cell assay (SEAP reporter, rhIL-17A/A stimulation)
Type: cell-based, human
Details: 20 hours incubation, absorbance at 405 nm, read-out: IC50 in HEK-Bule cell Assay
Protocol: • 1. The test Compounds were 3-fold serial diluted from 10 mM for 10 doses in DMSO. • 2. Prepare Reference Compounds (IL-17A-Inhibitor-1) were 3-fold serial diluted from 1 mM for 10 doses in DMSO. • 3. Prepare 1000× Positive control (1 mM IL-17A-Inhibitor-1) and 1000× vehicle control (100% DMSO).
• a) Cells were cultured as the HEK-Blue™ IL-17 technical data sheet recommended. HEK-Blue IL-17 cells were assayed in the exponential growth phase. • b) Aspirate growth medium and rinse cells twice with PBS to remove phenol red. • c) Resuspend cells in test medium to a proper concentration. • d) Only cells with viability greater than 90% were used for assays. • e) Transfer 25 nl of compound dilutions into 384-well assay plates using Echo655; • f) Seed 25 ul of HEK-Blue IL-17 cells at 8,000 cells/well into 384-well plate with rhIL-17A/A. • g) Cells were incubated for 20 hours at 37° C. under 5% CO2 atmosphere. • h) Transfer 2 ul of cells supernatant into per well of 384-well assay plates. • i) Add 20 ul of PNPP substrate. • j) Measure the Absorbance at 405 nm on Envision 2105 plate reader.
RLU signal (LUMcmpd) is calculated for each well.
% Inhibition is calculated as follow: […]
Signalave_pc: The average signal for the positive controls across the plate.
Signalave_vc: The average signal for negative controls across the plate.
Calculate IC50 and Plot effect-dose curve of cmpds:
Calculate IC50 by fitting % Inhibition values and log of compound concentrations to nonlinear regression (dose response−variable slope) with Graphpad 8.0.

Row | SMILES | IC50 (Homo sapiens, HEK-Blue, 20 h) [nM] | IC50 [nM]
1 | CC(C)n1nccc1C(=O)N[C@H](C(=O)Nc1ccc2c(c1)OCCC2C(=O)N1CCC(F)(F)CC1)C1CCCCCC1 (stereo partly shown) [Compound 206] | 369 | –
2 | CC(C)n1nccc1C(=O)N[C@H](C(=O)Nc1ccc2c(c1)OCCC2CC(=O)N1CC(F)(F)C(F)(F)C1)C1CCCCCC1 (stereo partly shown) [Compound 201] | 443 | –
3 | CC(C)n1nccc1C(=O)N[C@H](C(=O)Nc1ccc2c(c1)O[C@@H](C1CC(F)(F)C1)C[C@H]2C(=O)N1CC(F)(F)C1)[C@H]1CC[C@H](C)CC1 [Compound 241] | 15.9 | –
4 | CC(C)n1nccc1C(=O)N[C@H](C(=O)Nc1cc2c(cc1F)C(C(=O)N1CC(F)(F)C1)CC(C1CC(F)(F)C1)O2)C1CCCCCC1 (stereo partly shown) [Compound 193] | 39.7 | –
5 | CC(C)n1nccc1C(=O)N[C@H](C(=O)Nc1ccc2c(c1)OC(C)(C)C[C@H]2NC(=O)CCC(F)(F)F)C1CCCCCC1 [Compound 13] | 239 | –
6 | O=C(N[C@H](C(=O)Nc1ccc2c(c1)OC(C1CC(F)(F)C1)CC2C(=O)N1CC(F)(F)C1)C1CCCCCC1)OCc1cc(C(F)F)on1 (stereo partly shown) [Compound 191] | 171 | –
7 | CC(C)n1nccc1C(=O)N[C@H](C(=O)Nc1ccc2c(c1)OC1(CCOCC1)CN2C(=O)N1CC(F)(F)C1)C1CCCCCC1 [Compound 169] | 18.2 | –
8 | CC(C)n1nccc1C(=O)N[C@H](C(=O)Nc1ccc2c(c1)OCC[C@H]2NS(=O)(=O)CCC(F)(F)F)C1CCCCCC1 [Compound 5] | 333 | –
9 | CC(C)n1nccc1C(=O)N[C@H](C(=O)Nc1ccc2c(c1)OCC[C@H]2C(=O)N1CC(F)(F)C1)C1CCCCCC1 [Compound 198] | 216 | –
10 | CC(C)n1nccc1C(=O)N[C@H](C(=O)Nc1cc2c(cc1F)C(C(=O)N1CC(F)(F)C1)CC1(CCOCC1)O2)C(C1CC1)C1CC1 (stereo partly shown) [Compound 237] | 26.1 | –
11 | CC(C)n1nccc1C(=O)N[C@H](C(=O)Nc1ccc2c(c1)OC(C(C)(C)C)CC2C(=O)N1CC(F)(F)C(F)(F)C1)C1CCCCCC1 (stereo partly shown) [Compound 213] | 112 | –
12 | CC(C)n1nccc1C(=O)N[C@H](C(=O)Nc1cc2c(cc1F)C(C(=O)N1CC(F)(F)C1)CC1(CCOCC1)O2)[C@H]1CC[C@H](C)CC1 (stereo partly shown) [Compound 244] | 13.5 | –
13 | CC(C)n1nccc1C(=O)N[C@H](C(=O)Nc1ccc2c(c1F)OC(C1CC(F)(F)C1)CC2C(=O)N1CC(F)(F)C1)C1CCCCCC1 (stereo partly shown) [Compound 195] | 131 | –
14 | CC(C)C1CN(C(=O)N2CC(F)(F)C2)c2ccc(NC(=O)[C@@H](NC(=O)c3ccnn3C(C)C)C3CCCCCC3)cc2O1 (stereo partly shown) [Compound 167] | 30.4 | –
15 | CC(C)n1nccc1C(=O)N[C@H](C(=O)Nc1ccc2c(c1)OC1(CCC1)CC2C(=O)N1CC(F)(F)C1)C1CCCCCC1 (stereo partly shown) [Compound 222] | 255 | –
16 | CC(C)n1nccc1C(=O)N[C@H](C(=O)Nc1ccc2c(c1)OC1(CCCCC1)CC2C(=O)N1CC(F)(F)C1)C1CCCCCC1 (stereo partly shown) [Compound 221] | 116 | –
17 | CC(C)n1nccc1C(=O)N[C@H](C(=O)Nc1ccc2c(c1)OCC[C@H]2NC(=O)CCC(F)(F)F)C1CCCCCC1 [Compound 1] | 209 | –
18 | CC(C)CC1CC(C(=O)N2CC(F)(F)C2)c2ccc(NC(=O)[C@@H](NC(=O)c3ccnn3C(C)C)C3CCCCCC3)cc2O1 (stereo partly shown) [Compound 220] | 181 | –
19 | CC(C)n1nccc1C(=O)N[C@H](C(=O)Nc1ccc2c(c1)OCCC2C(=O)N1CC(F)(F)C1)C1CCCCCC1 (stereo partly shown) [Compound 197] | 287 | –
20 | O=C(N[C@H](C(=O)Nc1ccc2c(c1)OC1(CCOCC1)CC2C(=O)N1CC(F)(F)C1)C1CCCCCC1)OC[C@@H]1CC1(F)F (stereo partly shown) [Compound 190] | 367 | –
21 | CC(C)n1nccc1C(=O)N[C@H](C(=O)Nc1ccc2c(c1)O[C@@H](C1CC(F)(F)C1)C[C@H]2C(=O)N1CC(F)(F)C1)C1CCC(F)(F)CC1 [Compound 240] | 48.3 | –
22 | O=C(N[C@H](C(=O)Nc1cc2c(cc1F)C(C(=O)N1CC(F)(F)C1)CC(C1CC(F)(F)C1)O2)C1CCCCCC1)OC[C@@H]1CC1(F)F (stereo partly shown) [Compound 192] | 267 | –
23 | CC(C)n1nccc1C(=O)N[C@H](C(=O)Nc1ccc2c(c1)OC(C1CC(F)(F)C1)CC2C(=O)N1CC(C(F)F)C1)C1CCCCCC1 (stereo partly shown) [Compound 232] | 77.1 | –

Row | SMILES | IC50 (Homo sapiens, HEK-Blue, 20 h) [nM] | IC50 [nM]
24 | CC(C)[C@H]1C[C@H](C(=O)N2CC(F)(F)C(F)(F)C2)c2ccc(NC(=O)[C@@H](NC(=O)c3ccnn3C(C)C)C3CCCCCC3)cc2O1 [Compound 218] | 222 | –
25 | CC(C)n1nccc1C(=O)N[C@H](C(=O)Nc1ccc2c(c1)OC1(CCCC1)CC2C(=O)N1CC(F)(F)C1)C1CCCCCC1 (stereo partly shown) [Compound 223] | 130 | –
26 | CC(C)n1nccc1C(=O)N[C@H](C(=O)Nc1ccc2c(c1)OC1(CCC(C)(C)CC1)CC2C(=O)N1CC(F)(F)C1)C1CCCCCC1 (stereo partly shown) [Compound 224] | 202 | –
27 | CC(C)C1CC(C(=O)N2CC(F)(F)C2)c2ccc(NC(=O)[C@@H](NC(=O)OC3CC(F)(F)C3)C3CCCCCC3)cc2O1 (stereo partly shown) [Compound 194] | 564 | –
28 | CCC1(CC)CC(C(=O)N2CC(F)(F)C2)c2ccc(NC(=O)[C@@H](NC(=O)c3ccnn3C(C)C)C3CCCCCC3)cc2O1 (stereo partly shown) [Compound 108] | 102 | –
29 | CC(C)n1nccc1C(=O)N[C@H](C(=O)Nc1ccc2c(c1)CCCC2C(=O)N1CC(F)(F)C(F)(F)C1)C1CCCCCC1 (stereo partly shown) [Compound 203] | 141 | –
30 | CC(C)n1nccc1C(=O)N[C@H](C(=O)Nc1ccc2c(c1)SCCC2C(=O)N1CC(F)(F)C(F)(F)C1)C1CCCCCC1 (stereo partly shown) [Compound 207] | 92.9 | –
31 | CC(C)C1CC(C(=O)N2CC(F)(F)C2)c2cc(F)c(NC(=O)[C@@H](NC(=O)c3ccnn3C(C)C)C3CCCCCC3)cc2O1 (stereo partly shown) [Compound 230] | 242 | –
32 | CC(C)n1nccc1C(=O)N[C@H](C(=O)Nc1cc2c(cc1F)[C@H](C(=O)N1CC(F)(F)C1)C[C@H](C1CC(F)(F)C1)O2)C1CCC(F)(F)CC1 [Compound 249] | 99.3 | –
33 | CC(C)n1nccc1C(=O)N[C@H](C(=O)Nc1ccc2c(c1)OC1(CCC(F)(F)CC1)CC2C(=O)N1CC(F)(F)C1)C(C1CC1)C1CC1 (stereo partly shown) [Compound 243] | 122 | –
34 | CC(C)n1nccc1C(=O)N[C@H](C(=O)Nc1ccc2c(c1)OC1(CCOCC1)CC2C(=O)N1CC(F)(F)C1)[C@H]1CC[C@H](C)CC1 (stereo partly shown) [Compound 239] | 31.1 | –
35 | CC(C)n1nccc1C(=O)N[C@H](C(=O)Nc1ccc2c(c1)O[C@@H](C1CC(F)(F)C1)C[C@H]2C(=O)N1CC(F)(F)C1)C1CCCCCC1 [Compound 228] | – | 27.5
36 | Cc1nonc1C(=O)N[C@H](C(=O)Nc1ccc2c(c1)OC(C(C)C)CC2C(=O)N1CC(F)(F)C1)C1CCCCCC1 (stereo partly shown) [Compound 214] | 335 | –
37 | CC1CN(C(=O)N2CC(F)(F)C2)c2ccc(NC(=O)[C@@H](NC(=O)c3ccnn3C(C)C)C3CCCCCC3)cc2O1 (stereo partly shown) [Compound 235] | 71.9 | –
38 | CC(C)n1nccc1C(=O)N[C@H](C(=O)Nc1ccc2c(c1)S(=O)(=O)CCC2C(=O)N1CC(F)(F)C(F)(F)C1)C1CCCCCC1 (stereo partly shown) [Compound 208] | 290 | –
39 | CC(C)n1nccc1C(=O)N[C@H](C(=O)Nc1ccc2c(c1)OC1(CCOCC1)CN2C(=O)N1CC(F)(F)C1)C(C1CC1)C1CC1 [Compound 246] | 18.2 | –
40 | CC(C)C1CC(C(=O)N2CC3(C2)CC(F)(F)C3)c2ccc(NC(=O)[C@@H](NC(=O)c3ccnn3C(C)C)C3CCCCCC3)cc2O1 (stereo partly shown) [Compound 165] | 127 | –
41 | O=C(N[C@H](C(=O)Nc1ccc2c(c1)OC(C1CC(F)(F)C1)CC2C(=O)N1CC(C(F)(F)F)C1)C1CCCCCC1)OCC1CC1(F)F (stereo partly drawn) [Compound 189, (2,2-difluorocyclopropyl)methyl N—[(S)-cycloheptyl[(2-(3,3-difluorocyclobutyl)-4-(3-(trifluoromethyl)azetidine-1-carbonyl)-3,4-dihydro-2H-1-benzopyran-7-yl)carbamoyl]methyl]carbamate] | 226 | –
42 | CC(C)n1nccc1C(=O)N[C@H](C(=O)Nc1ccc2c(c1)O[C@H](C1CC(F)(F)C1)C[C@H]2C(=O)N1CC(F)(F)C1)C1CCCCCC1 [Compound 136] | 49 | –
43 | CC(C)n1nccc1C(=O)N[C@H](C(=O)Nc1ccc2c(c1)CCCC2C(=O)N1CC(F)(F)C1)C1CCCCCC1 (stereo partly shown) [Compound 219] | 276 | –
44 | CC(C)C1CC(C(=O)N2CC(C(F)(F)F)C2)c2ccc(NC(=O)[C@@H](NC(=O)c3ccnn3C(C)C)C3CCCCCC3)cc2O1 (stereo partly shown) [Compound 164] | 72.6 | –
45 | CC(C)[C@H]1C[C@@H](C(=O)N2CC(F)(F)C(F)(F)C2)c2ccc(NC(=O)[C@@H](NC(=O)c3ccnn3C(C)C)C3CCCCCC3)cc2O1 [Compound 215] | 40.7 | –
46 | CC(C)n1nccc1C(=O)N[C@H](C(=O)Nc1ccc2c(c1)OC1(CCOCC1)C[C@H]2C(=O)N1CC(F)(F)C1)C1CCCCCC1 [Compound 152] | 7.49 | –
